This is an account of results in PubChem BioAssay AID1918986 (Small Molecule Screening Facility, UW Madison, 2023).

The term IC50 denotes the concentration at which inhibition is half-maximal.

Active and inactive are the calls of the source.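 Rule for the calls: active = full-shape inhibition curve with partial efficacy, or partial curve whose IC50 upper confidence bound lies within tested doses; inactive = the rest.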

The experiment deals with Klebsiella pneumoniae PriA-SSB C-terminal tail interaction. Nature of the experiment: K. pneumoniae PriA-SSBct interaction blockers – biochemical, AlphaScreen, virtual screen prioritized set, dose response (AID 1918986). To be noted: PriA binding to biotinylated SSBct peptide. A general note: Bead proximity is the source of the signal in Alpha formats.
As for `C1=C[C@@H](CNc2nc(-c3ccccn3)cs2)[C@H]2CO[C@@H]1C2`, the half-inhibitory concentration (IC50) was 11.5 µM.
On to `CC1CCC(=NNc2ccccc2[N+](=O)[O-])CC1` (stereo not drawn), for which the IC50 is 3.64 µM.
Consider `c1cncc(CSCc2cccc3cccnc23)c1`, for which the result was inactive.
Consider `CC(C)N(C)S(=O)(=O)c1ccc(F)c(C(=O)Nc2nc(-c3ccccn3)cs2)c1`, for which the IC50 is 6.82 µM.
As for `c1ccc(-c2ncc[nH]2)nc1`, the IC50 is 15.7 µM.
For `COc1cc([N+](=O)[O-])c(C(=O)Nc2nc(-c3ccccn3)cs2)cc1SC`, the IC50 was 7.02 µM.
Take `O[C@@H]1COC[C@@H]1Nc1ccc2ccc3cccnc3c2n1`: the IC50 was 4.26 µM.
With `Cc1c(N)nc(-c2ccccn2)nc1NCC1CCC(C2CC2)O1` (stereo not drawn), the IC50 is 5.44 µM.
For `Oc1cccnc1SCc1ccc(F)c2cccnc12`, the result was inactive.
With `c1ccc(-c2nc3c(c(N4CCCC4)n2)CCC3)nc1`, the IC50 was 17.6 µM.
Turning to `O=c1[nH]c(NN=Cc2ccccn2)nc2ccccc12`, the result was inactive.
Consider `O=[N+]([O-])c1ccc(SC2CCCCC2)c2ncccc12`, for which the IC50 result is “inactive”.
For the molecule `CC1CC(Nc2nc(-c3ccccn3)cs2)C1` (stereo not drawn), the IC50 was 13.1 µM.
`c1cc(CSc2cccc3cccnc23)cc(CN2CCOCC2)c1`: the result was inactive.
On the same count and under the same terms, next, `CC(C)(C)c1ncc(-c2cccc3cccnc23)o1`: “inactive”.
On to `Cc1ccc(-c2nc(SCC(=O)NCc3ccnc(-c4ccccn4)n3)n[nH]2)cc1`, for which the IC50 is 37.8 µM.
As for `CC1(C)CC(CSc2cccc3cccnc23)=NO1`, the outcome was inactive.
Turning to `C(=NNc1ncnc2sccc12)c1ccccn1`, the IC50 is 2.68 µM.
Turning to `CC1CC(Nc2nc(-c3ccccn3)nc3c2CCC3)CC(C)N1` (stereo not drawn), the IC50 was 12.1 µM.
In the case of `Cc1ccc(-n2nc(C)cc2NC(=O)CSc2cccc3cccnc23)cc1`, the result was inactive.
`Cc1cccc2nc(CSc3cccc4cccnc34)cn12`: the outcome was inactive.
In the case of `CO[C@H](C)[C@@H](C)Nc1nc(-c2ccccn2)nc2c1CCC2`, the IC50 is 13.9 µM.
Take `CCOC(=O)c1c(C)[nH]c(C(=O)CSc2cccc3cccnc23)c1C`: the result was inactive.
As for `O=C(CSc1cccc2cccnc12)Nc1cccc(N2CCCC2=O)c1`, the result was inactive.
The same measure, in the same setting: the same measure for `O=C(Cc1ccc(S(=O)(=O)N2CCOCC2)s1)Nc1nc(-c2ccccn2)cs1`: “inactive”; for `O=[N+]([O-])c1ncn(Cc2cccc3cccnc23)n1`: “inactive”.
Regarding `O=[N+]([O-])c1cc(Cl)cc(C=Nc2ccc(Cl)c3ncccc23)c1O`, the result was inactive.
Consider `Cc1cc(-c2ccccn2)n[nH]1`, for which the result was inactive.
Take `CSCC(CCO)Nc1ccc2ccc3cccnc3c2n1` (stereo not drawn): the IC50 is 9.08 µM.
For the molecule `Cn1ccc(C23CCC(C2)C3C(=O)Nc2nc(-c3ccccn3)cs2)n1` (stereo not drawn), the IC50 is 22.2 µM.
In the case of `C1=C(c2cccc3cccnc23)CCNC1`, the result was inactive.
On to `OCCCCNc1ccc2ccc3cccnc3c2n1`, for which the IC50 was 4.33 µM.
For the molecule `O=C(O)CSc1ccc([N+](=O)[O-])c2cccnc12`, the result was inactive.
With `O=C(CN1C(=O)COc2ccc([N+](=O)[O-])cc21)Nc1nc(-c2ccccn2)cs1`, the IC50 was 12.4 µM.
On to `c1ccc(-c2cnc3n2CCC3)nc1`, for which the outcome was inactive.
For `C(=NNc1ncnc2nc[nH]c12)c1ccccn1`, the IC50 is 1.29 µM.
Turning to `c1cc2c(c(-c3cccc4cccnc34)c1)CNC2`, the outcome was inactive.
In the case of `c1cnc2c(Cn3ccnc3)cccc2c1`, the outcome was inactive.
For the molecule `O=C(O)c1cc(C(=O)N2CCS(=O)(=O)CC2)ccn1`, the result was inactive.
With `OCCC(Nc1ccnc2c1ccc1cccnc12)C(F)F` (stereo not drawn), the IC50 is 4.48 µM.
For `Cc1cc(C)cc(OCCN(C)C(=O)CSc2cccc3cccnc23)c1`, the outcome was inactive.
Regarding `CC1Sc2ccc(C(=O)Nc3nc(-c4ccccn4)cs3)cc2NC1=O` (stereo not drawn), the IC50 was 7.99 µM.
As to `c1cnc2c(SCc3ccn4ncnc4c3)cccc2c1`, the result was inactive.
For the molecule `CCc1nc(C)c(CSc2cccc3cccnc23)o1`, the outcome was inactive.
For `CCCN1CCCc2cc(C(C)C)ccc21`, the result was inactive.
`CC(C)c1ncc(-c2cccc3cccnc23)n1C`: the outcome was inactive.
On the same count and under the same terms, the same measure for `c1ccc(-c2csc(NC3COC4(CCC4)C3)n2)nc1` (stereo not drawn): “inactive”; for `Clc1cccnc1NN=Cc1ccccn1`: “inactive”; for `CN(C)CCN(C)c1ccc2ccc3cccnc3c2n1`: “inactive”.
With `O=C1CC2(CCOC2)C(C(=O)Nc2nc(-c3ccccn3)cs2)CN1` (stereo not drawn), the IC50 was 12.6 µM.
Regarding `Clc1cncnc1NN=Cc1ccccn1`, the IC50 is 1.7 µM.
In the case of `CSCC(CCO)Nc1ccnc2c1ccc1cccnc12` (stereo not drawn), the IC50 was 10.8 µM.
For the molecule `COC(C)COc1ccc2ccc3cccnc3c2n1` (stereo not drawn), the outcome was inactive.
Consider `Fc1cccc(CNc2nc(-c3ccccn3)nc3c2CCC3)c1F`, for which the IC50 is 6.11 µM.
Take `Nc1ncc(-c2ccccn2)cn1`: the result was inactive.
For `Cc1nc(SCC(=O)Nc2n[nH]c(-c3ccccn3)n2)n[nH]1`, the IC50 was 15.5 µM.
Take `O=c1[nH]ncc(NN=Cc2ccccn2)c1Cl`: the result was inactive.
Take `O=C(Nc1nc(-c2ccccn2)cs1)c1ccc(Cl)c(S(=O)(=O)NCC2CCCO2)c1` (stereo not drawn): the IC50 was 10 µM.
Take `OCCCN(CCO)c1ccc2ccc3cccnc3c2n1`: the outcome was inactive.
For the molecule `c1cnc2c(SCCn3cncn3)cccc2c1`, the outcome was inactive.
Consider `Fc1cccc2[nH]c(-c3ccccn3)nc12`, for which the outcome was inactive.
On to `FC(F)(F)c1cnc(NN=Cc2ccccn2)c(Cl)c1`, for which the IC50 was 20.2 µM.
As to `O=C(Nc1nc(-c2ccccn2)cs1)C1(C2CCCCO2)CCCO1` (stereo not drawn), the result was inactive.
For `c1ccc(-c2n[nH]c3ccccc23)nc1`, the result was inactive.
For `CCOC(=O)c1[nH]c(C)c(C(=O)CSc2cccc3cccnc23)c1C`, the outcome was inactive.
The same measure, in the same setting: next, `Clc1ccc(CN2CCOCCOCC2)c2ncccc12`: “inactive”.
Consider `O=C(O)c1cc(-c2ccccc2)ccn1`, for which the IC50 is 21 µM.
As for `Cc1nn(C(C)C)cc1-c1ccc2cccnc2c1C`, the result was inactive.
